Laboratory results reported in patent US6011032A, “Heterocyclic compounds for treating myocardial ischemia” (Pierre Fabre Medicament, priority 1995, dated 2000).
Counter-ions that a name gives are not always drawn.

What was measured:
anaesthetized rabbits = test: Reinfusion ischemia in anaesthetized rabbits (iv); assay type: in vivo, rabbit; settings: 0.16 mg/kg iv
Description: (§1) The compounds of the present invention of formula I and the therapeutically acceptable salts thereof have advantageous pharmacological properties. These derivatives are active on cardiomyocytes by inhibiting the diastolic contraction induced by veratrine in isolated rat left atrium. These compounds are also active in vivo during reinfusion ischemia in anaesthetized rabbits: they inhibit the electrical disturbances in the ECG caused by the reinfusion ischemia without any appreciable hemodynamic effect and are not cardiac depressors. Such compounds are useful for preventive or curative purposes in the treatment of coronaropathies and cardiac and cerebral ischemia in all their forms and in the treatment of atherosclerosis.
Compounds of the present invention are also active via the venous route in the test of reinfusion ischemia in anaesthetized rabbits according to the method of Verscheure et al. (Fundam Clin Pharmacol (1993) 7, 385). The results for the compounds of Examples 1, 2, 11 and 15 are given in the table below by way of non-limiting example: […]

isolated rat left atrium = test: Inhibition of contraction of isolated rat left atrium by veratrine; assay type: cell-based
Description: as §1
Inhibition of contraction of isolated rat left atrium by veratrine was carried out according to the technique of Le Grand et al. (Naunyn--Schmiedeberg's Arch Phazmacol (1993) 348 pp. 184-190). The results are given in the table below, in which the IC50 values are expressed in micromoles for certain compounds, by way of non-limiting examples: […]

CC(C)NCC(O)COc1ccc(CC(N)=O)cc1 (centres unmarked) [Atenolol, reference compound]
% arterial pressure variation (anaesthetized rabbits): -9%
% heart rate variation (anaesthetized rabbits): -13%
% inhibition ST segment (anaesthetized rabbits): 64%
Number of arrythmias under reinfusion (anaesthetized rabbits): 4/6

CN(C1=Nc2ccccc2CS1)C1CCN(CCCCOc2ccc(F)c(F)c2)CC1 [Example 11, N-Methyl-N-[1-[4-(3,4-difluorophenoxy)butyl]piperid-4-yl]-4H-3,1-benzothiazin-2-armine hydrogen maleate]
% arterial pressure variation (anaesthetized rabbits): +3%
% heart rate variation (anaesthetized rabbits): -1%
% inhibition ST segment (anaesthetized rabbits): 71%
Number of arrythmias under reinfusion (anaesthetized rabbits): 1/5

CN(C1=Nc2ccccc2CS1)C1CCN(CC(O)COc2ccc(F)cc2)CC1.Cl.Cl (centres unmarked) [Example 15, N-Methyl-N-[1-[2-hydroxy-3-(4-fluorophenoxy)propyl]-piperid-4-yl]-4H-3,1-benzothiazin-2-amine dihydrochloride]
% arterial pressure variation (anaesthetized rabbits): +5%
% heart rate variation (anaesthetized rabbits): 0%
% inhibition ST segment (anaesthetized rabbits): 90%
Number of arrythmias under reinfusion (anaesthetized rabbits): 1/5
IC50 (isolated rat left atrium): 320 nM

CN(c1nc2ccccc2s1)C1CCN(CCCCOc2ccc(F)cc2)CC1 [R 56865, N-(1-(4-(4-fluorophenoxy)butyl)piperid-4-yl)-N-methyl-2-benzothiazolamine, reference compound]
IC50 (isolated rat left atrium): 250 nM

COc1ccc([C@@H]2Sc3ccccc3N(CCN(C)C)C(=O)[C@@H]2OC(C)=O)cc1 [Diltiazem, reference compound]
% arterial pressure variation (anaesthetized rabbits): -27%
% heart rate variation (anaesthetized rabbits): -5%
% inhibition ST segment (anaesthetized rabbits): 61%
Number of arrythmias under reinfusion (anaesthetized rabbits): 0/6

CN(c1nc2ccccc2s1)C1CCN(CC(O)COc2ccc(F)cc2)CC1 (centres unmarked) [Sabeluzole, N-(1-(2-hydroxy-3-(4-fluorophenoxy)propyl)piperid-4-yl)-N-methyl-2-benzothiazolamine, reference compound]
% arterial pressure variation (anaesthetized rabbits): 2%
% heart rate variation (anaesthetized rabbits): -5%
% inhibition ST segment (anaesthetized rabbits): 84%
Number of arrythmias under reinfusion (anaesthetized rabbits): 1/5
IC50 (isolated rat left atrium): 5100 nM

CN(C1=Nc2ccccc2CS1)C1CCN(CCCCOc2ccc(F)cc2)CC1.O=C(O)/C=C\C(=O)O [Example 1, N-Methyl-N-[1-[4-(4-fluorophenoxy)butyl]piperid-4-yl]-4H-3,1-benzothiazin-2-amine hydrogen maleate]
% arterial pressure variation (anaesthetized rabbits): +6%
% heart rate variation (anaesthetized rabbits): +3%
% inhibition ST segment (anaesthetized rabbits): 76%
Number of arrythmias under reinfusion (anaesthetized rabbits): 3/5
IC50 (isolated rat left atrium): 150 nM

CN(C1=Nc2ccccc2CS1)C1CCN(CCCOc2ccc(F)cc2)CC1.O=C(O)/C=C\C(=O)O [Example 2, N-Methyl-N-[1-[3-(4-fluorophenoxy)propyl]piperid-4-yl]-4H-3,1-benzothiazin-2-amine hydrogen maleate]
% arterial pressure variation (anaesthetized rabbits): +4%
% heart rate variation (anaesthetized rabbits): -3%
% inhibition ST segment (anaesthetized rabbits): 76%
Number of arrythmias under reinfusion (anaesthetized rabbits): 1/5
